# From patent US11299478B2, “2-cyanopyrimidin-4-yl carbamate or urea derivative or salt thereof, and pharmaceutical composition including same” (HANLIM PHARMACEUTICAL CO., LTD., priority 2018, dated 2022)
# Key:
# Type in all cases: biochemical
# [1] = molecular target: T1, cathepsin K (Homo sapiens, UniProt P43235); experiment: Inhibitory activity assay against cathepsin K (enzyme assay); conditions: Z-Phe-Arg-AMC 10 μM, enzyme 1 nM, pH 5.5, 30 minutes
# T1 sequence (P43235 115-329): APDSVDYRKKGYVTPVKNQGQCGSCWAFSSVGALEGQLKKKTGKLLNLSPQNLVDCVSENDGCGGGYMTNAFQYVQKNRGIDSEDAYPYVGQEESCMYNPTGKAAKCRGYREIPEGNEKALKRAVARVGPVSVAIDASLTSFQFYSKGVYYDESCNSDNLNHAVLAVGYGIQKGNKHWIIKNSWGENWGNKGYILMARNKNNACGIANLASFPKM
# Summary of the method: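 Fluorogenic assay with 1 nM cathepsin K and 10 μM Z-Phe-Arg-AMC in pH 5.5 buffer (50 mM MES, 2 mM DTT, 2.5 mM EDTA, 0.01% Triton X-100, 10% DMSO). Ten compound concentrations, 10.0 to 0.000508 μM; 30 min reaction, ex 355/em 460 nm; IC50 by 4-parameter logistic fit.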
# [2] = molecular target: cathepsin S (Homo sapiens, UniProt P25774); experiment: Inhibitory activity assay against cathepsin S (enzyme assay); conditions: Z-Phe-Arg-AMC 70 μM, enzyme 3 nM, pH 6.5, 45 minutes
# cathepsin S, sequence (P25774 115-331, species assumed): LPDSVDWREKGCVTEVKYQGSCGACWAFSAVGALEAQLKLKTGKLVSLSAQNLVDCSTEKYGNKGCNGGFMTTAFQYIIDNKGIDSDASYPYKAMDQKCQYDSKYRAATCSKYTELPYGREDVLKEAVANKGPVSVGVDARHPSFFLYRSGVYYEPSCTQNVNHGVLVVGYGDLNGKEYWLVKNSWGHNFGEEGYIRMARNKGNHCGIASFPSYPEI
# Summary of the method: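 Cathepsin S (3 nM final) with Z-Phe-Arg-AMC substrate (70 μM final) in pH 6.5 buffer of 50 mM MES, 2.5 mM DTT, 1.0 mM EDTA, 0.001% BSA, 10% DMSO; compound 10.0 μM down to 0.000508 μM, 10 points. Fluorescence (ex 340/em 460 nm) after 45 min; IC50 by 4-parameter logistic fit.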
# [3] = molecular target: cathepsin B (Homo sapiens, UniProt P07858); experiment: Inhibitory activity assay against cathepsin B (enzyme assay); conditions: Z-Arg-Arg-AMC 40 μM, enzyme 1 nM, pH 6.0, 90 minutes
# Summary of the method: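 1 nM enzyme with 40 μM Z-Arg-Arg-AMC and compound (10.0 μM down to 0.000508 μM, 10 points) in pH 6.0 buffer of 50 mM MES, 5 mM DTT, 2.5 mM EDTA, 0.005% Polysorbate 20, 10% DMSO. Fluorescence (340/460 nm) read after 90 min; IC50 by 4-parameter logistic fit.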
# [4] = molecular target: cathepsin L (Homo sapiens, UniProt P07711); experiment: Inhibitory activity assay against cathepsin L (enzyme assay); conditions: Z-Phe-Arg-AMC 2 μM, enzyme 3 nM, pH 5.5, 30 minutes
# cathepsin L, sequence (P07711 114-333, species assumed): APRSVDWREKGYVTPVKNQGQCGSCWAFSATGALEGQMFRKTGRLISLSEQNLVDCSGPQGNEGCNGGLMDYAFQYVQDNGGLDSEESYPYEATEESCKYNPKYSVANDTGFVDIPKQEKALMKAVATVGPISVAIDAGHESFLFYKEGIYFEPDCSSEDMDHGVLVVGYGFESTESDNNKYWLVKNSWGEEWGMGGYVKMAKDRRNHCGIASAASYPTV
# Summary of the method: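 Enzyme at 3 nM with 2 μM Z-Phe-Arg-AMC in 50 mM MES pH 5.5, 2.5 mM DTT, 2.5 mM EDTA, 0.005% Polysorbate 20, 10% DMSO; 30 min reaction, AMC fluorescence 340/460 nm. Ten-point series 10.0 μM to 0.000508 μM; IC50 by 4-parameter logistic fit.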
SMILES,IC50 [1],IC50 [2],IC50 [3],IC50 [4]
"CN(C(=O)NC1(c2ccnc(C#N)n2)CCCCC1)c1ccccc1 [Example 104, 3-(1-(2-cyanopyrimidin-4-yl)cyclohexyl)-1-methyl-1-phenylurea]",12.4 nM,3540 nM,> 10000 nM,5590 nM
"CN(C(=O)NC1(c2ccnc(C#N)n2)CCCCC1)c1ccc(F)c(C(F)(F)F)c1 [Example 105, 3-(1-(2-cyanopyrimidin-4-yl)cyclohexyl)-1-(4-fluoro-3-(trifluoromethyl)phenyl)-1-methylurea]",2.1 nM,3630 nM,> 10000 nM,2980 nM
"N#Cc1nccc(C2(NC(=O)Nc3cc(C(F)(F)F)c(F)cc3F)CCCCC2)n1 [Example 106, 1-(1-(2-cyanopyrimidin-4-yl)cyclohexyl)-3-(2,4-difluoro-5-(trifluoromethyl)phenyl)urea]",3.1 nM,> 10000 nM,> 10000 nM,> 10000 nM
"COCc1ccc(C(F)(F)F)cc1NC(=O)NC1(c2ccnc(C#N)n2)CCCCC1 [Example 107, 1-(1-(2-cyanopyrimidin-4-yl)cyclohexyl)-3-(2-(methoxymethyl)-5-(trifluoromethyl)phenyl)urea]",6.8 nM,4750 nM,> 10000 nM,1470 nM
"N#Cc1nccc(C2(NC(=O)Nc3cc(C(F)(F)F)ccc3CO)CCCCC2)n1 [Example 108, 1-(1-(2-cyanopyrimidin-4-yl)cyclohexyl)-3-(2-(hydroxymethyl)-5-(trifluoromethyl)phenyl)urea]",6.9 nM,9850 nM,> 10000 nM,2270 nM
"N#Cc1nccc(C2(NC(=O)Nc3cccc(Br)c3)CCCCC2)n1 [Example 109, 1-(3-bromophenyl)-3-(1-(2-cyanopyrimidin-4-yl)cyclohexyl)urea]",11 nM,7620 nM,> 10000 nM,1920 nM
"N#Cc1nccc(C2(NC(=O)Nc3ccc(Br)cc3)CCCCC2)n1 [Example 110, 1-(4-bromophenyl)-3-(1-(2-cyanopyrimidin-4-yl)cyclohexyl)urea]",22.9 nM,> 10000 nM,> 10000 nM,> 10000 nM
"N#Cc1nccc(C2(NC(=O)Nc3cccc(-c4ccccc4)c3)CCCCC2)n1 [Example 111, 1-([1,1′-biphenyl]-3-yl)-3-(1-(2-cyanopyrimidin-4-yl)cyclohexyl)urea]",71.5 nM,> 10000 nM,> 10000 nM,> 10000 nM
"N#Cc1nccc(C2(NC(=O)Nc3ccc(-c4ccccc4)cc3)CCCCC2)n1 [Example 113, 1-([1,1′-biphenyl]-4-yl)-3-(1-(2-cyanopyrimidin-4-yl)cyclohexyl)urea]",12.2 nM,> 10000 nM,> 10000 nM,> 10000 nM
"N#Cc1nccc(C2(NC(=O)Nc3ccc(-c4ccc(C(F)(F)F)cc4)cc3)CCCCC2)n1 [Example 114, 1-(1-(2-cyanopyrimidin-4-yl)cyclohexyl)-3-(4′-(trifluoromethyl)-[1,1′-biphenyl]-4-yl)urea]",69.7 nM,> 10000 nM,> 10000 nM,> 10000 nM
"N#Cc1nccc(C2(NC(=O)Nc3ccc(-c4ccc(O)cc4)cc3)CCCCC2)n1 [Example 115, 1-(1-(2-cyanopyrimidin-4-yl)cyclohexyl)-3-(4′-hydroxy-[1,1′-biphenyl]-4-yl)urea]",9.2 nM,> 10000 nM,> 10000 nM,> 10000 nM
"CS(=O)(=O)c1ccc(-c2ccc(NC(=O)NC3(c4ccnc(C#N)n4)CCCCC3)cc2)cc1 [Example 116, 1-(1-(2-cyanopyrimidin-4-yl)cyclohexyl)-3-(4′-(methylsulfonyl)-[1,1′-biphenyl]-4-yl)urea]",2.1 nM,> 10000 nM,> 10000 nM,> 10000 nM
"N#Cc1nccc(C2(NC(=O)Nc3ccc(-c4ccc(N5CCOCC5)cc4)cc3)CCCCC2)n1 [Example 117, 1-(1-(2-cyanopyrimidin-4-yl)cyclohexyl)-3-(4′-morpholino-[1,1′-biphenyl]-4-yl)urea]",4.1 nM,> 10000 nM,> 10000 nM,> 10000 nM
"Cn1ncc2ccc(-c3ccc(NC(=O)NC4(c5ccnc(C#N)n5)CCCCC4)cc3)cc21 [Example 118, 1-(1-(2-cyanopyrimidin-4-yl)cyclohexyl)-3-(4-(1-methyl-1H-indazol-6-yl)phenyl)urea]",16.6 nM,> 10000 nM,> 10000 nM,> 10000 nM

# Other lines, results leading:
IC50 [1],IC50 [2],IC50 [3],IC50 [4],SMILES
9.6 nM,> 10000 nM,> 10000 nM,6790 nM,"N#Cc1nccc(C2(NC(=O)Nc3ccc(-c4ccncc4)cc3)CCCCC2)n1 [Example 119, 1-(1-(2-cyanopyrimidin-4-yl)cyclohexyl)-3-(4-(pyridin-4-yl)phenyl)urea]"
3.9 nM,> 10000 nM,9280 nM,> 10000 nM,"Cn1cc(-c2ccc(NC(=O)NC3(c4ccnc(C#N)n4)CCCCC3)cc2)cn1 [Example 120, 1-(1-(2-cyanopyrimidin-4-yl)cyclohexyl)-3-(4-(1-methyl-1H-pyrazol-4-yl)phenyl)urea]"
17.2 nM,> 10000 nM,> 10000 nM,> 10000 nM,"N#Cc1nccc(C2(NC(=O)Nc3ccc(-c4ccc(F)cc4)cc3)CCCCC2)n1 [Example 121, 1-(1-(2-cyanopyrimidin-4-yl)cyclohexyl)-3-(4′-fluoro-[1,1′-biphenyl]-4-yl)urea]"
16.9 nM,> 10000 nM,> 10000 nM,> 10000 nM,"C#Cc1ccc(-c2ccc(NC(=O)NC3(c4ccnc(C#N)n4)CCCCC3)cc2)cc1 [Example 122, 1-(1-(2-cyanopyrimidin-4-yl)cyclohexyl)-3-(4′-ethynyl-[1,1′-biphenyl]-4-yl)urea]"
10.2 nM,> 10000 nM,> 10000 nM,> 10000 nM,"N#Cc1nccc(C2(NC(=O)Nc3ccc(-c4cccc(F)c4)cc3)CCCCC2)n1 [Example 123, 1-(1-(2-cyanopyrimidin-4-yl)cyclohexyl)-3-(3′-fluoro-[1,1′-biphenyl]-4-yl)urea]"
6.9 nM,> 10000 nM,> 10000 nM,> 10000 nM,"N#Cc1nccc(C2(NC(=O)Nc3ccc(-c4ccccc4F)cc3)CCCCC2)n1 [Example 124, 1-(1-(2-cyanopyrimidin-4-yl)cyclohexyl)-3-(2′-fluoro-[1,1′-biphenyl]-4-yl)urea]"
15.2 nM,5420 nM,> 10000 nM,> 10000 nM,"N#Cc1nccc(C2(NC(=O)Nc3ccc(-c4ccc(F)nc4)cc3)CCCCC2)n1 [Example 125, 1-(1-(2-cyanopyrimidin-4-yl)cyclohexyl)-3-(4-(6-fluoropyridin-3-yl)phenyl)urea]"
25.1 nM,5750 nM,> 10000 nM,> 10000 nM,"N#Cc1nccc(C2(NC(=O)Nc3ccc(-c4ccc(C(F)(F)F)nc4)cc3)CCCCC2)n1 [Example 126, 1-(1-(2-cyanopyrimidin-4-yl)cyclohexyl)-3-(4-(6-(trifluoromethyl)pyridin-3-yl)phenyl)urea]"
10.9 nM,> 10000 nM,> 10000 nM,> 10000 nM,"COc1ccc(-c2ccc(NC(=O)NC3(c4ccnc(C#N)n4)CCCCC3)cc2)cn1 [Example 127, 1-(1-(2-cyanopyrimidin-4-yl)cyclohexyl)-3-(4-(6-methoxypyridin-3-yl)phenyl)urea]"
13.6 nM,9060 nM,> 10000 nM,> 10000 nM,"N#Cc1nccc(C2(NC(=O)Nc3ccc(-c4cccnc4)cc3)CCCCC2)n1 [Example 128, 1-(1-(2-cyanopyrimidin-4-yl)cyclohexyl)-3-(4-(pyridin-3-yl)phenyl)urea]"
4.9 nM,> 10000 nM,> 10000 nM,> 10000 nM,"CC(=O)Nc1ccc(-c2ccc(NC(=O)NC3(c4ccnc(C#N)n4)CCCCC3)cc2)cc1 [Example 129, N-(4′-(3-(1-(2-cyanopyrimidin-4-yl)cyclohexyl)ureido)-[1,1′-biphenyl]-4-yl)acetamide]"
7.8 nM,9070 nM,> 10000 nM,> 10000 nM,"CN(C)C(=O)c1ccc(-c2ccc(NC(=O)NC3(c4ccnc(C#N)n4)CCCCC3)cc2)cc1 [Example 130, 4′-(3-(1-(2-cyanopyrimidin-4-yl)cyclohexyl)ureido)-N,N-dimethyl-[1,1′-biphenyl]-4-carboxamide]"
